Measurements: patent US5753631A, “Intercellular adhesion mediators” (Cytel Corporation, priority 1995, dated 1998)

Experiments:
selectin receptors = conditions: Berg et al.; cited from earlier work
ELAM-1 [1] = target: T1, ELAM-1 (Homo sapiens, UniProt P16581); assay: Liposome inhibition of neutrophil (PMN) adhesion to IL-1 activated endothelium (HUVEC); type: cell-based; conditions: 0.47 μg/ml; Control +IL-1β 0.782
T1 construct: adhesion of neutrophils (PMN)
T1 sequence (P16581 22-610): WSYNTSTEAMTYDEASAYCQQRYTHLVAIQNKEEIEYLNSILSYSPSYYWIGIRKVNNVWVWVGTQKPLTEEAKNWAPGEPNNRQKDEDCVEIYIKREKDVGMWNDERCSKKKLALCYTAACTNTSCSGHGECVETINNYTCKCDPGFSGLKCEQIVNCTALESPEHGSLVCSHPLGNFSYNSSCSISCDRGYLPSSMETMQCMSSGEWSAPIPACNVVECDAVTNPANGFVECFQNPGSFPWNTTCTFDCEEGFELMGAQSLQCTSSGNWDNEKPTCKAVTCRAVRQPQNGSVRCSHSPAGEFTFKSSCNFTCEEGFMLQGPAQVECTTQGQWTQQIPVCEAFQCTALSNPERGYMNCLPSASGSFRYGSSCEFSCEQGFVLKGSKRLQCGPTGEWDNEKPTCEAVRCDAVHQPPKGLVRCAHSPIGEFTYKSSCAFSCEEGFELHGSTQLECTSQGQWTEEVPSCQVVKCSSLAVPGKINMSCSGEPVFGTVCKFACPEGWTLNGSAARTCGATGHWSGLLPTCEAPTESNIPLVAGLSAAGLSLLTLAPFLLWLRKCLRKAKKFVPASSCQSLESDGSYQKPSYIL

ELAM-1 [2] = target: T1, ELAM-1; assay: as above; type: cell-based; conditions: for inhibition of neutrophil adhesion to activated endothelium: E-Selectin dependent binding assay, liposomes
Procedure: Two synthetic compounds were prepared. One comprised sialic acid in an α2,3 linkage, as in naturally occurring SLe^x. The second comprised sialic acid in an α2,6 linkage, to examine the importance of the nature of the linkage to receptor binding.
Liposomes were prepared by adding 12 μl of absolute ethanol (ETOH) to each tube, warming briefly in a 50° C. water bath and sonicating for 2 min. 238 μl of warm phosphate buffered saline (PBS) was added slowly to each tube while sonicating and sonication was continued for a further 10 min. The final concentration of stock liposomes was 400 μg glycolipids/ml in 5% ETOH/PBS.
1. HUVECs, PMNs, and liposomes were prepared as described above.
2. The stimulated HUVEC assay plate was removed from the incubator and the wells were washed two times with RPMI 1640 containing 5 mg/ml bovine serum albumin (BSA).
3. Liposomes stocks were diluted in the HBSS/BSA buffer to make solutions equal to: 40 μg/ml, 30 μg/ml, 15 μg/ml, 7.5 μg/ml, 3.75 μg/ml and 1.87 μg/ml. Similar dilutions were prepared from a control stock consisting of PBS-5% ETOH.
4. The medium was removed from the wells of the assay plate with a pasteur pipette, a few wells at a time.
5. 0.05 ml of each liposome suspension was added to duplicate wells on the stimulated assay plate. Control wells received the liposome buffer containing ethanol HBSS and BSA at the same concentrations as in the liposome containing wells. Control buffer was plated on unstimulated and stimulated HUVEC. Liposome containing samples were added to stimulated wells only.
6. The plates were incubated for 40 min at 37° C. and then 50 μl of PMNs were added to the assay wells. The final concentration of cells was 5×10^5 well in 100 μl.
7. The assay plate was returned to the incubator (5% CO2, 37° C.) for 8 min.
8. Unbound cells were removed from the wells of the assay plates by systematic resuspension using a P200 multichannel pipette followed by addition and removal of 0.2 ml of medium.
9. All of the medium was removed from the wells and 50 μl of solubilization buffer was added. This consisted of citrate buffer (24.3 ml of 0.1M Citric acid, 10.5 g/500 ml+25.7 ml of 0.2M dibasic sodium phosphate, 14.2 g/500 ml and SQ H2 O to 100 ml) containing 0.1% NP-40 detergent.
10. The plate was incubated on a rotary shaker for 10 min and then 0.05 ml of OPDA solution [8 mg o-phenylene-diamine, Sigma cat# P-1526, 8 μl of 30% H2 O2 and 10 ml of citrate buffer (as above)] was added to each well. The reaction was allowed to develop for 15 min and then 25 μl of 4N H2 SO4 was added to each well to stop the reaction.
11. A reagent bulk was prepared by mixing 100 μl volumes of the solubilization buffer and the OPDA solution with 50 μl of 4N H2 SO4.
12. 100 μl of supernatant was removed from each of 2 wells and transferred to a flexible ELISA assay plate (Falcon). The plate was scanned spectrophotometrically at 492 nm within 30 min.

[3] = 1.87 μg/ml, Control +IL-1β 0.725
[4] = 3.75 μg/ml, Control +IL-1β 0.698
[5] = 7.5 μg/ml, Control +IL-1β 0.658

Mean absorbance at 492 nm (bound neutrophils) (ELAM-1 [1]) | Mean absorbance at 492 nm (bound neutrophils) (ELAM-1 [2]; [3]) | Mean absorbance at 492 nm (bound neutrophils) (ELAM-1 [2]; [4]) | Mean absorbance at 492 nm (bound neutrophils) (ELAM-1 [2]; [5]) | Mean absorbance at 492 nm (bound neutrophils) (ELAM-1 [2]; 15 μg/ml, Control +IL-1β 0.740) | Mean absorbance at 492 nm (bound neutrophils) (ELAM-1 [2]; 20 μg/ml, Control +IL-1β 0.657) | Molecule | recognition by selectin receptors (selectin receptors) | inhibition of neutrophil adhesion to activated endothelium (ELAM-1 [2])
 |  |  |  |  |  | CC(=O)N[C@H]1[C@H]([C@H](O)[C@H](O)CO)O[C@@](O[C@H]2[C@@H](O)[C@@H](CO)O[C@@H](O[C@H]3[C@H](O[C@@H]4O[C@@H](C)[C@@H](O)[C@@H](O)[C@@H]4O)[C@@H](CO)OC(O)[C@@H]3NC(C)=O)[C@@H]2O)(C(=O)O)C[C@@H]1O (stereo partly drawn) [SLe^a, NeuAcα2,3Galβ1,3(Fucα1,4)GlcNAcβ1--] | recognized by selectin receptors | 
0.642 | 0.580 | 0.483 | 0.359 | 0.270 | 0.156 | NeuAcα2,3Galβ1,4(Fucα1,3) GlcNAcβ1,3Galβ1,4Glcβ1,1Ceramide [(2,3) SLe^x] |  | inhibit neutrophil adhesion to activated endothelium
0.695 | 0.690 | 0.655 | 0.602 | 0.636 | 0.663 | NeuAcα2,6Galβ1,4(fucα1,3)GlcNacβ1,3Galβ1,4Glcβ1,1Ceramide [(2,6) SLe^x, reference compound] |  | not
